Results: US20110312897A1, “CATHEPSIN L PROTEOLYTICALLY PROCESSES HISTONE H3 DURING MOUSE EMBRYONIC STEM CELL DIFFERENTIATION” (THE ROCKEFELLER UNIVERSITY, priority 2008, published 2011)
Where no end group is shown, it is not given here.

How the values were obtained:
cathepsin L = cathepsin L (Homo sapiens, UniProt P07711); settings: cited from earlier work
cathepsin D = cathepsin D (Homo sapiens, UniProt P07339); settings: cited from earlier work
Cbx7-CD protein = target: T1, Cbx7-CD protein (Mus musculus, UniProt Q8VDS3); assay: Fluorescence anisotropy of Cbx7-CD binding to H3 peptides; settings: p<0.01
T1 construct: the chromodomain of mouse CBX7; made in house
T1 sequence (Q8VDS3 11-69 limits assumed): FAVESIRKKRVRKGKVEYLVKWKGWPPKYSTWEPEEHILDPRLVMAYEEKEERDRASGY
Protocol: FIG. 7A is an immunoblot showing cleavage of the modified recombinant histone 3 substrates following incubation with rCathepsin L. The four rH3 substrates used in the cleavage assay include: 1=rH3 unmodified, 2=rH3 alkylated to K27me2, 3=rH3 pan-acetylated with acetic anhydride, 4=rH3+K27me2 pan-acetylated with acetic anhydride. FIG. 7B is a graph showing the amount of recombinant H3 cleavage product formed following incubation with Cathepsin L. H3 cleavage reactions were performed as in FIG. 7A using synthesized H3 peptides representing amino acids 15 to 31. Reactions were incubated with ˜250 pmol peptide and quenched with 0.1% TFA before being plated in duplicate for ELISA with the H3cs.1 antibody. Signal was normalized to that of mock reactions for each peptide. Results represent three independent experiments. […] Binding decreases 3-fold with cleaved peptide. p<0.01. Kds are in μM±SEM. Data points represent the mean±SD
What effect the cleavage of the H3 tail, a proteolytic modification rather than a covalent modification, might have on the binding of effector proteins was examined. […]

[1] = target: T2, chromodomain of mouse CBX7 (Mus musculus, UniProt Q8VDS3); assay: Peptide pull-down assay; format: binding; settings: cleaved vs non-cleaved H3 tail peptide
T2 construct: the chromodomain of mouse CBX7; made in house
T2 sequence (Q8VDS3 11-69 limits assumed): T1 sequence (Q8VDS3 11-69 limits assumed)
Protocol: Peptide pull-down assays were performed as described Wysocka, J. “Identifying Novel Proteins Recognizing Histone Modifications Using Peptide Pull-down Assay,” Methods 40:339-343 (2006), which is hereby incorporated by reference in its entirety, using biotinylated peptides conjugated to streptavidin agarose beads (Pierce Cat. No. 20349). Elutions were loaded onto 10 or 15% SDS-PAGE gels and silver stained.
What effect the cleavage of the H3 tail, a proteolytic modification rather than a covalent modification, might have on the binding of effector proteins was examined. Given that K27 methylation is a well-documented binding site for the chromodomain-containing protein Polycomb (Bernstein et al., “Mouse Polycomb Proteins Bind Differentially to Methylated Histone H3 and RNA and are Enriched in Facultative Heterochromatin,” Mol Cell Biol 26:2560-2569 (2006) and Fischle et al., “Molecular Basis for the Discrimination of Repressive Methyl-lysine Marks in Histone H3 by Polycomb and HP1 Chromodomains,” Genes Dev 17:1870-1881 (2003), which are hereby incorporated by reference in their entirety), the effect of H3 cleavage on Pc binding to H3K27 methylation was tested. […]

[2] = target: T3, H3 protease activity in fraction #23 (Mus musculus, UniProt P06797); assay: In vitro H3 cleavage assay of hydroxyapatite fraction #23 +/- protease inhibitors; format: biochemical
T3 construct: a double chain mature form at ˜25 kD and ˜5 kD; endogenous in cells; host or cells: chromatin of 3 days +RA differentiating mouse ESCs (LF2), hydroxyapatite fraction #23
Protocol: (§1) Extracts were incubated in buffer (10 mM HEPES, 10 mM KCl, 1.5 mM MgCl2, 0.34M sucrose, 10% glycerol, 5 mM β-mercaptoethanol, all final) with 0.1 μg/μl rH3-HIS (purified from E. coli) and incubated at 37° C. for 1-3 hours. Reactions were stopped by addition of 5×SDS sample buffer and boiling; results were analyzed by immunoblotting with HIS-HRP and/or H3.cs1 antibody. For MS analysis, reactions were quenched by addition of 0.1% (final) TFA. rCathepsin L (R&D Systems, # 1515-CY-010), rCathepsin B (R&D Systems Cat No. BAF965), and rCathepsin K (Calbiochem Cat. No. 342001) were purchased from commercial sources and tested in the assay with rH3-HIS.
Three days+RA differentiating ESC chromatin pellets were solubilized by sonication in buffer A (80 mM NaPO^−4, 200 mM NaCl), injected onto a 2 or 5 mL hydroxyapatite column (BioRad), and fractionated with a 200 mM to 2M NaCl gradient. Each fraction was then assayed as described above. […] Digest was then acidified with glacial acetic acid and aliquots of samples were analyzed using an LTQ-FT as described above. Data was searched against a mouse database using SEQUEST (Eng et al., Journal of the American Society of Mass Spectrometry 5:976-989 (1994), which is hereby incorporated by reference in its entirety). All spectra of interest were manually validated.
To validate further the identification of Cathepsin L as a histone H3 protease, the enriched fractions were tested with different classes of protease inhibitors in the H3 cleavage assay.

[3] = target: T4, Recombinant mouse Cathepsin L (Mus musculus, UniProt P06797); assay: Inhibition of recombinant mouse Cathepsin L cleavage of rH3-HIS by E64 (immunoblot, FIG. 13); format: biochemical; settings: pH 7.5 and pH 5.5; E64 10 μM, 50 μM, and 500 μM
T4 construct: purchased R&D Systems 1515-CY-010
Protocol: Recombinant mouse Cathepsin L was incubated with C-terminally HIS-tagged recombinant histone H3 at both pH 7.5 (left) and pH 5.5 (right) in either buffer alone (−) or in the presence of the cysteine protease inhibitor E64 (+); the final concentration of E64 was 10 μM, 50 μM, and 500 μM.
as §1

T3 sequence (P06797 114-288 limits assumed): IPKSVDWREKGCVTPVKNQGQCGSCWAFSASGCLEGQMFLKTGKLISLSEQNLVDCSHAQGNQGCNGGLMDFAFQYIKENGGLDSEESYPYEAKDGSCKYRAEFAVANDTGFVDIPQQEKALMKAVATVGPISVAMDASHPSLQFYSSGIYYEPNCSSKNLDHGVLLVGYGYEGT
T3 sequence (P06797 291-334 limits assumed): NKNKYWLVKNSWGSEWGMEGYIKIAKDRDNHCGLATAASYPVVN
cathepsin L, sequence (P07711 114-333, species assumed): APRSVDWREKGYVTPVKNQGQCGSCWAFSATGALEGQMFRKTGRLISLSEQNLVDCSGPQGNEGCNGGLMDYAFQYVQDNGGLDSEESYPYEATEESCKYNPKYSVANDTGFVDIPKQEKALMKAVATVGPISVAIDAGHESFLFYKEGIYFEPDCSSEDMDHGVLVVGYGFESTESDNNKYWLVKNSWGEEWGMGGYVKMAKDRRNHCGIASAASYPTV
T4 sequence (P06797 114-334): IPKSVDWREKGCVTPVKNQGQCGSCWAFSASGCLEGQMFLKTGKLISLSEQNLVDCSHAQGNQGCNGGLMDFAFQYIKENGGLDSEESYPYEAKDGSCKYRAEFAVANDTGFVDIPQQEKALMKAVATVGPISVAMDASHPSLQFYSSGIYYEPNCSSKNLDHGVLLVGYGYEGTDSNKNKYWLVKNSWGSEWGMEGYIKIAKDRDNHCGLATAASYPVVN
cathepsin D, sequence (P07339 65-412): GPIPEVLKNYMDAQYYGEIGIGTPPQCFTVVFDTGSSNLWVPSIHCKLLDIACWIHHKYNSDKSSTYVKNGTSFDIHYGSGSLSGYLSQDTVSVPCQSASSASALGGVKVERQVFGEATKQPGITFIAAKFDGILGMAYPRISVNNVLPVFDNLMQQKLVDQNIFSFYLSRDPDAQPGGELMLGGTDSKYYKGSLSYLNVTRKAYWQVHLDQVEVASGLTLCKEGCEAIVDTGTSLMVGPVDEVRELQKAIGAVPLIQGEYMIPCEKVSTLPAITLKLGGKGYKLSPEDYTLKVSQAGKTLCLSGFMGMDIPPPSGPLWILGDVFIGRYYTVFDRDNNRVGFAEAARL

For `NC(N)=O` [Urea], the “enhancement of cathepsin L activity, factor” value (cathepsin L) is given as 2.5 and the “enhancement of cathepsin D activity, factor” value (cathepsin D) is given as 6.
For “cleaved peptide: peptide mimicking the cleaved H3 tail, amino acid residues 22-37, K27 methylated (TKAARK(Me)SAPATGGVKK; not fully specified)”, the “decrease in Cbx7-CD binding vs non-cleaved peptide (amino acid residues 18-37)” value (Cbx7-CD protein) was 3 fold and the “CBX7 binding to methylated H3K27” value [1] was “greatly diminished”.
In the case of `CC(C)C[C@H](NC(=O)[C@H]1O[C@@H]1C(=O)O)C(=O)NCCCCN=C(N)N` (relative stereo) [E64, L-trans-Epoxysuccinyl-leucylamido(4-guanidino)butane], the H3 cleavage activity ([2]; E64 10 μM, lowest concentration tested) is reported as “all cleavage was abolished”, the “inhibition of H3 protease activity in fraction #23” value ([2]; FIG. 4A) is reported as “potent inhibitor of the H3 protease activity” and the “inhibition of recombinant mouse Cathepsin L (rH3-HIS cleavage)” value [3] is reported as “inhibition of recombinant mouse Cathepsin L”.
